Values of other authors in patent US20150051382A1 (CARDIOPEP PHARMA GMBH, priority 2010, published 2015).

Key:
[1] = tested on: dogs
[2] = tested on: patients with chronic congestive heart failure; settings: 15 ng/kg/min, 10-hour infusion
[3] = tested on: patients with moderate asthma affliction; settings: brief infusion; healthy and diseased subjects
[4] = tested on: patients with chronic congestive heart failure

urodilatin
effect as compared to other natriuretic peptides, such as ANP [1]: better effect | central venous pressure (CVP) ([2]; after 5 hours of infusion): increases slightly | urine flow ([2]; after 8 hours of infusion): loss of action | effect on bronchoconstriction [3]: temporary biological effect | changes of the baseline in pulmonary capillary wedge pressure (PCWP) ([4]; 15+30 ng/kg/min, compared with the placebo group): significant reductions | changes of the cardiac index (CI) ([4]; 15 and 30 ng/kg/min): significant increase | cardiac index (CI), reversal of effect ([4]; after 6 to 8 hours of infusion): partial drop of CI | pulmonary capillary wedge pressure (PCWP), reversal of effect ([4]; after 6 to 8 hours of infusion): slight increase of PCWP | symptoms, morbidity and mortality ([4]; all doses): significantly improved | acute survival rate and hospital dwelling time ([4]; human, in vivo): significantly and relevantly influenced
